Several values for one entry are separate records, joined by “and”; a condition that tells them apart may be missing. Equal entries are not always repeated. Entries after “also recorded” stand apart in the source; their conditions may differ.
What was measured:
[1] = system: L. infantum (MHOM/MA/67/ITMAP-263) axenic amastigotes; assay: In vivo anti-amastigote activity in BALB/c mice infection model (limiting dilution parasite burden); settings: spleen, liver, bone marrow; URB1483 5 mg/kg/day IP in 60% PEG 400, 10 days; 5 mg/kg/day
Procedure: The compound URB1483 was selected for the in vivo evaluation on a BALB/c mice infection model. Six- to seven-week-old BALB/c mice were purchased from Charles River Laboratories (Barcelona, Spain) or the I3S (Porto, Portugal) animal facility. Luciferase-expressing L. infantum (MHOM/MA/67/ITMAP-263) axenic amastigotes were cultured in complete cell-free medium MAA/20 [20] at 37°C with 5% CO2. Five-day-old cultures of amastigotes were washed twice with PBS and resuspended at a concentration of 1×10^9 parasites/Ml. A total of 17 mice were infected with 100 μL of parasite suspension containing 1×10^8 parasites. The injection was performed intra-venously (IV) in the tails of mice, and treatments started 21 days post-infection for 10 consecutive days. Formulation studies are reported in the Supporting Information (S1 Table in S1 File). […]
Mice well-being-assessment was checked every two days, in terms of weight control and the presence of stress signs. […] Spleen and liver were weighted, and bone marrow cells were counted with automatic cell counter EVE^TM (NanoEnTek, Seul, Korea). […] For bone marrow, the number of parasites was calculated per 10^5 cells using the formula: [(geometric mean of reciprocal titer from each triplicate/number of cells) × reciprocal fraction of the cells inoculated into the first well]. […]

[2] = Formulation (solubility and stability) study of URB1483; type: physicochemical; settings: for Solubility: 48-72 h at 37 °C
Procedure: Equivalence calculation between URB1483 concentration and injectable dose (mg/kg) […]
Considering an average mice weight of 25 g and an IP injectable volume of 100 μL, the following […]
correspondence can be considered:
[URB1483](mg/mL) = Dose (mg/kg) ∙ 0.025 (kg)
[URB1483](mM) = Dose (mg/kg) ∙0.025 (kg)
General procedure for the formulation study
To the indicated volume of the URB1483 stock solution in DMSO (25.0 mg/mL , 50.24 mM) were […]
added the appropriate volume or weight of excipient and the resulting mixture was heated at 37 °C […]
and sonicated for 10-20 min. Finally, distilled water was added to reach the final volume of 1 mL […]
(Table S1). The resulting formulation was ma intained at 37 °C under stirring for 48-72 h. At regular […]
time points, aliquots of the described formulations were sampled, centrifuged (8000 rpm, 10 min), […]
and two volumes of acetonitrile were added. After further centrifugation (8000 rpm, 10 min), the […]
resulted clear samples were analyzed by HPLC -ESI-MS for a percentage of the remaining compound.
URB1483 was considered soluble and stable in the formulation with more than 90% of the compoun d […]
Table S1 – Preliminary Formulation Study on URB1483[a]
Entry Final Dose Stock Solution URB1483 Volume Excipient Solubility[b]
2[c] 1 mg/kg 5 μL DMSO (95 μL) 🗶
3[c] 1 mg/kg 5 μL DMSO (195 μL) ✓
[a] DMSO = dimethylsulfoxide; PG = propylene glycol; PEG = polyethylene glycol; HPBC = 2-hydropropyl- […]
β-cyclodextrin. [b] URB1483 was considered soluble and stable with more than 90% of the compound […]
remaining unaltered after 48-72 h at 37 °C, by HPLC-ESI-MS analysis. [c] Instead of water, a physiological […]
solution (saline) was utilized.

THP-1 cells = system: THP-1 cells; set-up: method as in PMID 34984300; settings: cited from earlier work
[3] = system: THP-1, DH82, HepG2, HaCaT and HPF cells; set-up: method as in PMID 34984300; settings: cited from earlier work
[4] = system: L. infantum intracellular amastigotes; set-up: method as in PMID 34984300; settings: compared with pentamidine; cited from earlier work
[5] = system: L. infantum MHOM/TN/80/IPT1 promastigotes; set-up: method as in PMID 34984300; settings: read-out: IC50 against L. infantum promastigotes; cited from earlier work

CCOC(=O)c1c(C(=O)OC)cn(CC(c2cn(C)c3ccccc23)c2cn(C)c3ccccc23)c1C [URB1483]
effect on parasite burden (in vivo efficacy) [1]: did not significantly reduce parasite burden; also recorded: No in vivo efficacy; also recorded: could not reduce parasite burden; also recorded: ineffective
water solubility [2]: Poorly soluble in water; also recorded: very poor water solubility; also recorded: poor water solubility
maximum injectable concentration ([2]; 60% PEG 400 in water, 1.25 mg/mL, mouse weight 25 g, injection volume 100 μL): 5 mg/kg
Solubility ([2]; entry 3: final dose 1 mg/kg, DMSO (195 μL), saline): ✓ (URB1483 was considered soluble and stable with more than 90% of the compound remaining unaltered after 48-72 h at 37 °C, by HPLC-ESI-MS analysis)
Solubility ([2]; entry 6: final dose 1 mg/kg, PG (600 mg), water): ✓ (URB1483 was considered soluble and stable with more than 90% of the compound remaining unaltered after 48-72 h at 37 °C, by HPLC-ESI-MS analysis)
Solubility ([2]; entry 9: final dose 1 mg/kg, PEG 400 (400 mg), water): ✓ (URB1483 was considered soluble and stable with more than 90% of the compound remaining unaltered after 48-72 h at 37 °C, by HPLC-ESI-MS analysis)
Solubility ([2]; entry 11: final dose 1 mg/kg, PEG 400 (500 mg), water): ✓ (URB1483 was considered soluble and stable with more than 90% of the compound remaining unaltered after 48-72 h at 37 °C, by HPLC-ESI-MS analysis)
Solubility ([2]; entry 12: final dose 2 mg/kg, PEG 400 (500 mg), water): ✓ (URB1483 was considered soluble and stable with more than 90% of the compound remaining unaltered after 48-72 h at 37 °C, by HPLC-ESI-MS analysis)
Solubility ([2]; entry 14: final dose 1 mg/kg, PEG 400 (600 mg), water): ✓ (URB1483 was considered soluble and stable with more than 90% of the compound remaining unaltered after 48-72 h at 37 °C, by HPLC-ESI-MS analysis)
Solubility ([2]; entry 15: final dose 2 mg/kg, PEG 400 (600 mg), water): ✓ (URB1483 was considered soluble and stable with more than 90% of the compound remaining unaltered after 48-72 h at 37 °C, by HPLC-ESI-MS analysis)
Solubility ([2]; entry 16: final dose 5 mg/kg, PEG 400 (600 mg), water): ✓ (URB1483 was considered soluble and stable with more than 90% of the compound remaining unaltered after 48-72 h at 37 °C, by HPLC-ESI-MS analysis)
Solubility ([2]; entry 19: final dose 1 mg/kg, HPBC (400 mg), water): ✓ (URB1483 was considered soluble and stable with more than 90% of the compound remaining unaltered after 48-72 h at 37 °C, by HPLC-ESI-MS analysis)
CC50 (THP-1 cells): > 200 µM
selectivity index (SI) (THP-1 cells): greater than 55
toxicity on mammalian cell lines [3]: did not affect the viability; also recorded: No toxicity
efficacy on in vitro infection model [4]: comparable to that of the commercial drug pentamidine
IC50 [5]: 3.7 µM and 4 µM
